Earlier results, collected in patent US20210024636A1, “COMPOSITIONS AND METHODS FOR TREATING SEXUAL DYSFUNCTION” (ChemistryRX, priority 2019, published 2021).

Legend:
[1] = test system: human peripheral blood mononuclear cells; details: in vitro
[2] = test system: T-cell adhesion to ICAM-1; details: human T-cell line, in vitro

CS(=O)(=O)c1cccc(C[C@H](NC(=O)c2c(Cl)cc3c(c2Cl)CCN(C(=O)c2ccc4ccoc4c2)C3)C(=O)O)c1 [lifitegrast]
inhibition of secretion of inflammatory cytokines [1]: may inhibit secretion of inflammatory cytokines | inhibition of T-cell adhesion to ICAM-1 [2]: may inhibit T-cell adhesion to ICAM-1
